Calls of active or inactive are those of the source.
Tests used:
[1] = target: T1, Endoribonuclease toxin MazF (Escherichia coli K-12, UniProt P0AE70); test: MazF toxin RNase activators, dose response, biochemical, fluorescence, single-stranded RNA substrate, uHTS hits (AID 588481); type: functional
T1 sequence (P0AE70 whole entry): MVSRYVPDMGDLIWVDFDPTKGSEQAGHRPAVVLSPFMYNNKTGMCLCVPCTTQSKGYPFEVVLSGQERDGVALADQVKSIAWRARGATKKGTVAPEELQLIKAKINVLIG

Beta-lactamase [2] = target: Beta-lactamase (Pseudomonas aeruginosa, UniProt Q79MP6);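 note: biochemical dose-response test of metallo-beta-lactamase enzyme inhibition, read out by epi-absorbance; purified recombinant IMP-1 metallo-beta-lactamase with nitrocefin as substrate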
Sequence of Beta-lactamase (Pseudomonas aeruginosa, UniProt Q79MP6) (Q79MP6 whole entry): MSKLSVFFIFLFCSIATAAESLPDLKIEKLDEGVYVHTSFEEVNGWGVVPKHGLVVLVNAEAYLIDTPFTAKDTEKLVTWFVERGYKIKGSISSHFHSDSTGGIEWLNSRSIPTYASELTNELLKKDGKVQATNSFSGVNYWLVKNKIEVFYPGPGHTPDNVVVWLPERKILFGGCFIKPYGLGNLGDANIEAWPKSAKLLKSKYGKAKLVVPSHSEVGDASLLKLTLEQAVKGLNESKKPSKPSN

BJ [3] = test: cytotoxicity toward BJ-TERT fibroblasts, dose response, cell-based, RAS-independent, luminescence (AID 1933); type: functional; settings: Homo sapiens
[4] = cytotoxicity toward DRD oncogenic fibroblasts, dose response, cell-based, non-viral oncogenic, luminescence (AID 1934); type: functional; settings: Homo sapiens
[5] = target: T1, Endoribonuclease toxin MazF; test: fluorescent RNA oligo signal without MazF, dose response, counter-screen for MazEF activator project, biochemical, fluorescence, single-stranded RNase substrate (AID 588502); type: functional
Troponin, cardiac muscle = Troponin, cardiac muscle (Homo sapiens, UniProt P19429+P45379+P63316); test: Fluorescence-based biochemical high throughput dose response assay for activators of the calcium sensitivity of cardiac Regulated Thin Filaments (RTF). [Related pubchem assays (depositor defined):AID493008, AID493018, AID504382, AID504383]; type: protein-complex assay
BJ [6] = test: cytotoxicity toward BJ-TERT-LT-ST fibroblasts, dose response, cell-based, RAS-independent, luminescence (AID 1935); type: functional; settings: Homo sapiens;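 note: BJ fibroblasts immortalized with TERT plus LT and ST oncogenes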
Beta-lactamase [7] = target: Beta-lactamase (Salmonella choleraesuis (strain SC-B67), UniProt Q5J463)
Sequence of Beta-lactamase (Salmonella choleraesuis (strain SC-B67), UniProt Q5J463) (Q5J463 whole entry): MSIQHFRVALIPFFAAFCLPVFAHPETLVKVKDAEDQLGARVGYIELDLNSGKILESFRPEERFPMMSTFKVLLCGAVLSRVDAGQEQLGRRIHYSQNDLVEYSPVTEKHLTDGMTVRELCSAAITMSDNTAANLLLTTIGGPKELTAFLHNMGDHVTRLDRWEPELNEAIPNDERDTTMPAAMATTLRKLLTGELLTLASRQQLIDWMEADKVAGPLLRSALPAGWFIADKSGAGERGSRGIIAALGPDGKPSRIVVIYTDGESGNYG

Beta Lactamase = Beta Lactamase (Pseudomonas aeruginosa, UniProt Q932Y6);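 note: confirmatory high-throughput screen measuring VIM-2 metallo-beta-lactamase inhibition by epi-absorbance in dose response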
Sequence of Beta Lactamase (Q932Y6 whole entry): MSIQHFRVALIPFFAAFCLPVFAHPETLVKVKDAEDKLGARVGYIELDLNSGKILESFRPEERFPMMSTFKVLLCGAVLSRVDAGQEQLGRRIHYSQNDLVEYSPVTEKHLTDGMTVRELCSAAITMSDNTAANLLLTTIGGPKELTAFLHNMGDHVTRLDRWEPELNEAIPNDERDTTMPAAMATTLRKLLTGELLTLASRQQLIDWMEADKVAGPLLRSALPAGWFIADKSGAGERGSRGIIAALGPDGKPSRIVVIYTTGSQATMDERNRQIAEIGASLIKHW

BJ [8] = test: cells; type: functional, cell-based; settings: Homo sapiens
[9] = nonselective inhibitors of cellular cAMP signaling, dose response, counter-screen for MC4R biased antagonist project, cell-based, TR-FRET cAMP detection (AID 602305); type: functional;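 note: U2OS cells stimulated with forskolin near its EC80 as the cAMP inducer; potency is for inhibition of forskolin-stimulated cAMP signaling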
Melanocortin receptor 4 = Melanocortin receptor 4 (Homo sapiens, UniProt P32245); test: MC4R antagonist potency on cAMP, dose response, cell-based, TR-FRET, biased antagonists (AID 602298); type: functional;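 note: antagonist potency against agonist-stimulated cAMP production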
Sequence of Melanocortin receptor 4 (P32245 whole entry): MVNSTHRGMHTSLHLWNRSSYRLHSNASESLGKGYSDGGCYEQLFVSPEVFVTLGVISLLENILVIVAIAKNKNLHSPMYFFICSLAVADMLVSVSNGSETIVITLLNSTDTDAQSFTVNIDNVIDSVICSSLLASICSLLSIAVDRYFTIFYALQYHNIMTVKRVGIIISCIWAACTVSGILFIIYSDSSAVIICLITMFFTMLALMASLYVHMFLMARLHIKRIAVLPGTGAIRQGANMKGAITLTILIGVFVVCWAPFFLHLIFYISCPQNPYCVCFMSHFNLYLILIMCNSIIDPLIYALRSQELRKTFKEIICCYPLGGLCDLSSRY

[10] = target: Aryl hydrocarbon receptor (Homo sapiens, UniProt P35869); settings: Potency;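 note: confirmatory quantitative high-throughput screen measuring activation of the AhR signaling pathway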
Sequence of Aryl hydrocarbon receptor (P35869 whole entry): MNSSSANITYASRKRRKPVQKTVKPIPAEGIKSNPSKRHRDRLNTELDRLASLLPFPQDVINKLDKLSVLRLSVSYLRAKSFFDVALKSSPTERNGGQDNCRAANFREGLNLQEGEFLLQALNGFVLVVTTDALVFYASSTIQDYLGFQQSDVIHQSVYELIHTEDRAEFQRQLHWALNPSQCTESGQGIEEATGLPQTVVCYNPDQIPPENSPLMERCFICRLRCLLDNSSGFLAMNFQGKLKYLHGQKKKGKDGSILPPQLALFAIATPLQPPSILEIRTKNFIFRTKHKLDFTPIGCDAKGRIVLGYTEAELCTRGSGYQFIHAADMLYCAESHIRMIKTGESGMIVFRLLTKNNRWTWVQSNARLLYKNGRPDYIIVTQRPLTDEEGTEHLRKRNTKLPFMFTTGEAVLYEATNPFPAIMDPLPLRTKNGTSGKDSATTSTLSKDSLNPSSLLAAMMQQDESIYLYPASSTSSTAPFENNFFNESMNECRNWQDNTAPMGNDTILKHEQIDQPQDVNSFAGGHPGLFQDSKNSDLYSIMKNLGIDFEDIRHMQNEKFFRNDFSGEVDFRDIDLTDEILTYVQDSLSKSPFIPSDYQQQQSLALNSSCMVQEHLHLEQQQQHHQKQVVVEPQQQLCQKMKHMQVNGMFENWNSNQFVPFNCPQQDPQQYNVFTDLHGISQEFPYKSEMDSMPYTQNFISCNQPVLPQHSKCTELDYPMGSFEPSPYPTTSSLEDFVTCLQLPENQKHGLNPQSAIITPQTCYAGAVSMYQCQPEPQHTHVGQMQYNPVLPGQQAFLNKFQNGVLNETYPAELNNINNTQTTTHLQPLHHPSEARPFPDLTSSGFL

Aurora kinase B = Aurora kinase B (Homo sapiens, UniProt Q96GD4); type: functional
Sequence of Aurora kinase B (Q96GD4 whole entry): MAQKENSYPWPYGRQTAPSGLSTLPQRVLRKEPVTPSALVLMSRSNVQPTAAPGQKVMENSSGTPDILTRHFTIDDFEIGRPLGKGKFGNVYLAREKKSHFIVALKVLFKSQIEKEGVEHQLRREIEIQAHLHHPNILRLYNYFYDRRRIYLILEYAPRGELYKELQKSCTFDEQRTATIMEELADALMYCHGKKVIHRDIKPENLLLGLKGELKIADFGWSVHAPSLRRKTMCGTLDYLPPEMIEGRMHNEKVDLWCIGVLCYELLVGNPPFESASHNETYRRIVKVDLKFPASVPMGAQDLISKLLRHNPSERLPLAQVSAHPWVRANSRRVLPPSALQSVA

Aurora kinase A = Aurora kinase A (Homo sapiens, UniProt O14965); type: functional;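 note: value from the Navigating the Kinome kinase panel profiling, panel entry STK6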
Sequence of Aurora kinase A (O14965 whole entry): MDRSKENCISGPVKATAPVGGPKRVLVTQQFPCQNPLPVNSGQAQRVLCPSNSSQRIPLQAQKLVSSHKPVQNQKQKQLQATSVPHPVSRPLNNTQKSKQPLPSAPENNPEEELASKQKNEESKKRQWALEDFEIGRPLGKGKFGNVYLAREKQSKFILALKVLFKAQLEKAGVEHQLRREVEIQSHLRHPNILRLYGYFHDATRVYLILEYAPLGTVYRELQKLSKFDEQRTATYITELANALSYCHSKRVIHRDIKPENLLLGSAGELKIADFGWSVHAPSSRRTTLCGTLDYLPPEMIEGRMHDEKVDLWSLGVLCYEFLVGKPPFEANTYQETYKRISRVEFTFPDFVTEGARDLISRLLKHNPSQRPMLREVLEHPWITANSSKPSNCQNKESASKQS

[11] = target: T2, Apoptotic protease-activating factor 1 (Homo sapiens, UniProt O14727); test: SAR analysis of small molecule Activators of Apaf-1 in a Fluorescent assay.; type: functional; settings: read-out: EC50_Mean;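 note: caspase-3 cleavage of fluorogenic Rh110 DEVD substrate downstream of apoptosome activation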
T2 sequence (O14727 whole entry): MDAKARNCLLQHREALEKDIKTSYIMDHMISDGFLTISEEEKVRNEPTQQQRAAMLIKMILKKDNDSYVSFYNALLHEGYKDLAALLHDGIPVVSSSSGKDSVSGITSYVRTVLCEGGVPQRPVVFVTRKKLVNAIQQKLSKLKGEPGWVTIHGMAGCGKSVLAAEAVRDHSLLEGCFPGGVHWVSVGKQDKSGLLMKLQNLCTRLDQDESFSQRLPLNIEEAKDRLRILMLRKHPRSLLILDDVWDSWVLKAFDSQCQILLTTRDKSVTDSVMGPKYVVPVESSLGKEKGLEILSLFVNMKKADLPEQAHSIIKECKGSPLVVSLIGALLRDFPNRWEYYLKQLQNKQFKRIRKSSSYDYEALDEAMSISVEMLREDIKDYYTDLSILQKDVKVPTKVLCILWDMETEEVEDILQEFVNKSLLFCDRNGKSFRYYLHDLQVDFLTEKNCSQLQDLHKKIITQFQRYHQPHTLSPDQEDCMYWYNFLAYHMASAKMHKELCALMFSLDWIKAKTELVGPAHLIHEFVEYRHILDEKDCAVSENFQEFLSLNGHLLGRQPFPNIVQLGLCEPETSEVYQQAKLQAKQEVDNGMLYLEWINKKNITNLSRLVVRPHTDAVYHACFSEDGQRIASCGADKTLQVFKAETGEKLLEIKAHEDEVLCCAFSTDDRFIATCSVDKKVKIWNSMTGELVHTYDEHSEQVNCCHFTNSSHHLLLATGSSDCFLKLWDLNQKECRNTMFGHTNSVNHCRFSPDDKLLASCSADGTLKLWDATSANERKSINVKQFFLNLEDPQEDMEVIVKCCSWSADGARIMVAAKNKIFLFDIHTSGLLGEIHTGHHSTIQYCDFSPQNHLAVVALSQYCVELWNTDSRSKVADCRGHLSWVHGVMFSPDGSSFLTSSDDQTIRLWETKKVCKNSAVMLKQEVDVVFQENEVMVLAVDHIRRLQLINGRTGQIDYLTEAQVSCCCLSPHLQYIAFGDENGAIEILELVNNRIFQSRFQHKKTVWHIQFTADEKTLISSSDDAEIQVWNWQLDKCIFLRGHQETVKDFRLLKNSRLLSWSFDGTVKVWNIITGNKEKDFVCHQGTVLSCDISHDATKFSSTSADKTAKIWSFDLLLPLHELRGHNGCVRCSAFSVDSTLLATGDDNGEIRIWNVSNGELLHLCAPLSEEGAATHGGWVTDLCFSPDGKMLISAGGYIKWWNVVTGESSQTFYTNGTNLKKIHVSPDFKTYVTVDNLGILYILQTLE

[12] = HepG2 cell cytotoxicity, dose response, cytotoxicity control for Shn3 inhibitor project, CellTiter-Glo, cherry-picked (AID 624134); type: functional, cell-based
HEK293 = test: inhibitors of LMP1-driven NF-kB reporter, dose response, cell-based, HEK293, luciferase, cherry-pick (AID 588343); type: functional; settings: Homo sapiens
[13] = Fluorescence-based cell-based high throughput dose response assay for inhibitors of the interaction of nucleotide-binding oligomerization domain containing 2 (NOD2) and the receptor-interacting serine-threonine kinase 2 (RIPK2).; type: functional; settings: Homo sapiens
[14] = Shn3 3'UTR reporter inhibitors, dose response, cell-based, Clone20 osteoblasts, firefly luciferase, cherry-picked (AID 624132); type: functional;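 note: firefly luciferase luminescence from reporter carrying the Shn3 3'UTR in osteoblasts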
[15] = target: T3, Latent membrane protein 1 (Human herpesvirus 4 (strain B95-8), UniProt P03230); test: TES1-eGFP NF-kB reporter inhibition versus Tet-On dsRED, dose response, selectivity assay for LMP1 NF-kB inhibitor project, imaging, HEK293T, dual-color eGFP/dsRED, cherry-picks (AID 588398); type: functional, cell-based
T3 sequence (P03230 whole entry): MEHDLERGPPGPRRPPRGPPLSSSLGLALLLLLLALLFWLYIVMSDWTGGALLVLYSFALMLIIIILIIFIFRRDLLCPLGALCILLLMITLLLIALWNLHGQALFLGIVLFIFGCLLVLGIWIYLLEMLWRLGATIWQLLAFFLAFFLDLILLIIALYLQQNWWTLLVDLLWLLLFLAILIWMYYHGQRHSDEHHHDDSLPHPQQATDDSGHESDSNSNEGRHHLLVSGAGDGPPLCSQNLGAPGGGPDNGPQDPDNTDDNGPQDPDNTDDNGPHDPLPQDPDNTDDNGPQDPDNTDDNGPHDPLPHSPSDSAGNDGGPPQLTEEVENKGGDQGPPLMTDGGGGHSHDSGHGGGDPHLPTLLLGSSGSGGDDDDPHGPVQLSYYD

[16] = control 3'UTR Renilla luciferase suppression, dose response, counter-screen for Shn3 inhibitor project, cell-based, Clone20-Shn3RL, cherry-picked (AID 624133); type: functional
Protein Wnt-3a = Protein Wnt-3a (Mus musculus, UniProt P27467); test: Wnt3a-driven reporter signaling inhibition, dose response, selectivity assay for Gli-SUFU antagonist project, Wnt-LIGHT cells, luminescence (AID 651570); type: functional; settings: read-out: IC50_Mean;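 note: Wnt-LIGHT reporter cells stimulated with conditioned medium from Wnt3a-producing cells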
Sequence of Protein Wnt-3a (P27467 whole entry): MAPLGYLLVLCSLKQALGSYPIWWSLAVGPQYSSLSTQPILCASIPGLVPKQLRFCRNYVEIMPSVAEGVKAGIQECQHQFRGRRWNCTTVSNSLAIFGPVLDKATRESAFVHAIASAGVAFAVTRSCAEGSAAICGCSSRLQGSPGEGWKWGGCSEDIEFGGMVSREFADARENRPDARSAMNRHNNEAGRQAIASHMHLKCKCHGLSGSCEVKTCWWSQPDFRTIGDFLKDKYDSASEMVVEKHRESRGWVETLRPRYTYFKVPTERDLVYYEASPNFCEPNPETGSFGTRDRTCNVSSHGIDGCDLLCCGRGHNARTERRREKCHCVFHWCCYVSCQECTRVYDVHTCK

Coagulation factor XII = target: T4, Coagulation factor XII (Homo sapiens, UniProt P00748); type: functional;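 note: activated factor XIIa alpha cleaving a fluorogenic AMC peptide substrate; inhibitor potency from loss of enzyme activity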
T4 sequence (P00748 whole entry): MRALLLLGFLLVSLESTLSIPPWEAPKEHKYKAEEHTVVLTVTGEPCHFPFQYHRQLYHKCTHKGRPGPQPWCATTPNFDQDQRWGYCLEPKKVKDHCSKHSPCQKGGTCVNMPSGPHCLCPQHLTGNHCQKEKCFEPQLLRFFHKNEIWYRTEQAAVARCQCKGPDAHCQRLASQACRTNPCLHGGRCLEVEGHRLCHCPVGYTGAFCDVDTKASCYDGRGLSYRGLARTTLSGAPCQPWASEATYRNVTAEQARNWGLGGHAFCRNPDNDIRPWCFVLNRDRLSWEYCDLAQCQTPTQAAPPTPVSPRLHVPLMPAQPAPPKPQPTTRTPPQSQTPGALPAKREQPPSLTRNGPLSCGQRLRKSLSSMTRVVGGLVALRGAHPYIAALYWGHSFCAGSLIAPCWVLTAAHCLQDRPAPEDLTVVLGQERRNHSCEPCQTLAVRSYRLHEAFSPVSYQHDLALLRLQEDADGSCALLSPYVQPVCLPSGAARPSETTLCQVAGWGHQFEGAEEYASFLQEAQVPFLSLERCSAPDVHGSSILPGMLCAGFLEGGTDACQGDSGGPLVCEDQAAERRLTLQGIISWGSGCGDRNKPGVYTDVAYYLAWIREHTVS

Structure (SMILES): CN(/N=C/c1ccc(N(C)C)cc1)C1=NS(=O)(=O)c2ccccc21
- EC50 [1]: > 99 µM (inactive)
- IC50 (Beta-lactamase [2]): 13.4 µM (inactive)
- EC50 (BJ [3]): 27.9 µM (active)
- EC50 [4]: 84.8 µM (active)
- EC50 [5]: > 99 µM (inactive)
- EC50 (Troponin, cardiac muscle): 4.5 µM (active)
- EC50 (BJ [6]): > 150 µM (not active)
- IC50 (Beta-lactamase [7]): 23 µM (inactive)
- IC50 (Beta Lactamase): 15 µM (inactive)
- EC50 (BJ [8]): 47 µM (active)

Structure (SMILES): CCOC(=O)c1cc(C)nc(S(C)(=O)=O)c1C#N
- IC50 [9]: > 64.6 µM (inactive)
- IC50 (Melanocortin receptor 4): > 64.6 µM (inactive)

Structure (SMILES): N#CSCSc1nc2ccccc2s1
- AC50 [10]: 50.1 µM (inconclusive)

Structure (SMILES): Cc1cc(N=Cc2ccc(O)c(O)c2)c2ccccc2n1
- Ki (Aurora kinase B): 0.00631 µM (active)
- Ki (Aurora kinase A): 0.0251 µM (active)

Structure (SMILES): O=C(O)c1coc(-c2ccc(F)cc2)n1
- EC50 [11]: > 100 µM (inactive)

Structure (SMILES): O=C1C(=C(c2ccccc2)N2CCOCC2)Cc2ccccc21
- AC50 [12]: 38.4 µM (active)
- AC50 (HEK293): 4.87 µM (active)
- IC50 [13]: 1.34 µM (active)
- AC50 [14]: 0.999 µM (active)
- AC50 [15]: 2.98 µM (active)
- AC50 [16]: 5.97 µM (active)

Structure (SMILES): COc1ccc(C2=[N+](C)CCn3cccc32)c(OC)c1
- IC50 (Protein Wnt-3a): 7 µM (active)
- IC50 (Coagulation factor XII): > 50 µM (inactive)
